Measurements reported in patent US20240190874A1, “SMALL MOLECULE DEGRADERS OF ANDROGEN RECEPTOR” (THE REGENTS OF THE UNIVERSITY OF MICHIGAN, priority 2021, published 2024).
pIC50: −log10 of the molar value.

What was measured:
Type in all cases: cell-based
[1] = target: T1, AR (Homo sapiens, UniProt P10275); assay: Degradation of AR in VCaP cells; settings: VCaP cells; for Dmax: VCaP
T1 construct: Degradation of AR; Cellular potency; host or cells: VCaP cells
T1 sequence (P10275 1-920): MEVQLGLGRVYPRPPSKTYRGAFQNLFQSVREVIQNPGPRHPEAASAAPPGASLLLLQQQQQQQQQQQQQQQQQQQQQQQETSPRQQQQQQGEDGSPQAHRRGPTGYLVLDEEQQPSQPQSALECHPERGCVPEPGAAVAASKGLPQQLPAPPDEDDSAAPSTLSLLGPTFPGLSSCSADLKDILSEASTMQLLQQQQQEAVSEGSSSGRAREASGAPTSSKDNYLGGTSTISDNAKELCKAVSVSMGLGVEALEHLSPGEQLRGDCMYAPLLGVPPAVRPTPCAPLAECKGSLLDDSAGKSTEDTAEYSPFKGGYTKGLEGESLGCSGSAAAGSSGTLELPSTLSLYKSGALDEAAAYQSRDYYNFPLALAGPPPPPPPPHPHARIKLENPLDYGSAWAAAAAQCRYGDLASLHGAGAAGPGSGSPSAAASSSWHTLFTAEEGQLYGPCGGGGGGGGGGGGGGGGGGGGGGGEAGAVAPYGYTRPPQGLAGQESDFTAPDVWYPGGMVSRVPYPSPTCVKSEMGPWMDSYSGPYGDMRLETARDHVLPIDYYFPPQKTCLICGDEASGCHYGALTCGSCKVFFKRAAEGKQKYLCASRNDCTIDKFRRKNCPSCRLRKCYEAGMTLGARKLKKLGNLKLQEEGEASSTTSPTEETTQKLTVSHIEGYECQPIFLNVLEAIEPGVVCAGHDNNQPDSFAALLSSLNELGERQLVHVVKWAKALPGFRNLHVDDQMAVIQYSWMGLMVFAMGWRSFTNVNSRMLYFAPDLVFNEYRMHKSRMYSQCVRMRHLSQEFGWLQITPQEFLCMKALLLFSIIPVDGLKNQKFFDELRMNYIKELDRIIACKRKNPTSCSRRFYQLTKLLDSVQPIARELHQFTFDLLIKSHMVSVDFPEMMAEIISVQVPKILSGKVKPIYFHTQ
Procedure: (§1) Biological Assays. LNCaP and VCaP cells used were purchased from American Type Culture Collection (ATCC). LNCaP were grown in RPMI 1640 (Invitrogen) and VCaP cells were grown in DMEM with Glutamax (Invitrogen). All of the cells were supplemented with 10% fetal bovine serum (Invitrogen) at 37° C. in a humidified 5% CO2 incubator.

[2] = test system: LNCaP cells; assay: Cellular potency (IC50) in LNCaP cells; settings: Homo sapiens, LNCaP
Procedure: as §1

[3] = test system: VCaP cells; assay: Cellular potency (IC50) in VCaP cells; settings: Homo sapiens, VCaP
Procedure: as §1

| SMILES | DC50 [1] [nM] | Dmax [1] [%] | pIC50 [2] | pIC50 [3] |
| --- | --- | --- | --- | --- |
| C[C@H]1CC2(CCN(c3ccc(N4CCC(OC5CN(c6ccc7c(c6)C(=O)N(C6CCC(=O)NC6=O)C7=O)C5)CC4)cn3)CC2)CN1c1ccc(C#N)c(Cl)c1 (some centres unmarked) [compound 92] | < 1 | > 90 | > 8.00 | > 8.00 |
| C[C@H]1CC2(CCN(c3ccc(OC4CCN(C5CCN(c6ccc7c(c6)C(=O)N(C6CCC(=O)NC6=O)C7=O)CC5)CC4)cc3)CC2)CN1c1ccc(C#N)c(Cl)c1 (some centres unmarked) [compound 58] | < 10 | > 90 | > 7.00 | > 7.00 |
| C[C@H]1CC2(CCN(c3cnc(N4CCN(CC5CN(c6ccc7c(c6)C(=O)N(C6CCC(=O)NC6=O)C7=O)C5)CC4)cn3)CC2)CN1c1ccc(C#N)c(Cl)c1 (some centres unmarked) [compound 49] | < 1 | > 90 | > 8.00 | > 8.00 |
| C[C@H]1CC2(CCN(c3ccc(CN4CCC(CN5Cc6cc7c(cc6C5)C(=O)N(C5CCC(=O)NC5=O)C7=O)CC4)cc3)CC2)CN1c1ccc(C#N)c(Cl)c1 (some centres unmarked) [compound 20] | < 100 | 70 to 90 | > 7.00 | > 7.00 |
| C[C@H]1CC2(CCN(c3ccc(C4CCN(CC5CN(c6ccc7c(c6)C(=O)N(C6CCC(=O)NC6=O)C7=O)C5)CC4)nc3)CC2)CN1c1ccc(C#N)c(Cl)c1 (some centres unmarked) [compound 45] | < 1 | > 90 | > 8.00 | > 8.00 |
| C[C@H]1CC2(CCN(c3ccc(OC4CCN(C5CN(c6ccc7c(c6)C(=O)N(C6CCC(=O)NC6=O)C7=O)C5)CC4)nn3)CC2)CN1c1ccc(C#N)c(Cl)c1 (some centres unmarked) [compound 62] | < 1 | > 90 | > 8.00 | > 8.00 |
| C[C@H]1CC2(CCN(c3ccc(N4CCC(N(C)C5CN(c6ccc7c(c6)C(=O)N(C6CCC(=O)NC6=O)C7=O)C5)CC4)nc3)CC2)CN1c1ccc(C#N)c(Cl)c1 (some centres unmarked) [compound 124] | < 10 | 70 to 90 | > 7.00 | > 7.00 |
| C[C@H]1CC2(CCN(c3cnc(N4CCN(CC5CN(c6ccc7c(c6)C(=O)N(C6CCC(=O)NC6=O)C7=O)C5)CC4)nc3)CC2)CN1c1ccc(C#N)c(Cl)c1 (some centres unmarked) [compound 82] | < 1 | > 90 | > 8.00 | > 8.00 |
| C[C@H]1CC2(CCN(c3ccc(OC4CN(C5CN(c6ccc7c(c6)C(=O)N(C6CCC(=O)NC6=O)C7=O)C5)C4)cc3)CC2)CN1c1ccc(C#N)c(Cl)c1 (some centres unmarked) [compound 59] | < 1 | > 90 | > 8.00 | > 8.00 |
| C[C@H]1CC2(CCN(c3ccc(N4CCN(CC5CN(c6ccc7c(c6)C(=O)N(C6CCC(=O)NC6=O)C7=O)C5)CC4)cn3)CC2)CN1c1ccc(C#N)c(Cl)c1 (some centres unmarked) [compound 31] | < 1 | > 90 | > 8.00 | > 8.00 |
| C[C@H]1CC2(CCN(c3ccc(N4CCC(CN5CCN(c6ccc7c(c6)C(=O)N(C6CCC(=O)NC6=O)C7=O)CC5)CC4)cn3)CC2)CN1c1ccc(C#N)c(Cl)c1 (some centres unmarked) [compound 51] | < 10 | > 90 | > 7.00 | > 7.00 |
| C[C@H]1CC2(CCN(c3cnc(N4CCN(CC5CCN(c6ccc7c(c6)C(=O)N(C6CCC(=O)NC6=O)C7=O)CC5)CC4)nc3)CC2)CN1c1ccc(C#N)c(Cl)c1 (some centres unmarked) [compound 83] | < 1 | > 90 | > 8.00 | > 8.00 |
| C[C@H]1CC2(CCN(c3ccc(N4CCC(CN5Cc6cc7c(cc6C5)C(=O)N(C5CCC(=O)NC5=O)C7=O)CC4)cn3)CC2)CN1c1ccc(C#N)c(Cl)c1 (some centres unmarked) [compound 52] | < 10 | > 90 | > 7.00 | > 7.00 |
| C[C@H]1CC2(CCN(c3ccc(C(=O)N4CCN(C5CN(c6ccc7c(c6)C(=O)N(C6CCC(=O)NC6=O)C7=O)C5)CC4)s3)CC2)CN1c1ccc(C#N)c(Cl)c1 (some centres unmarked) [compound 135] | < 10 | 70 to 90 | > 7.00 | > 7.00 |
| C[C@H]1CC2(CCN(c3ccc(S(=O)(=O)C4CCN(CC5CCN(c6ccc7c(c6)C(=O)N(C6CCC(=O)NC6=O)C7=O)CC5)CC4)cc3)CC2)CN1c1ccc(C#N)c(Cl)c1 (some centres unmarked) [compound 162] | < 1 | – | > 8.00 | > 8.00 |
